Laboratory results taken from the METLIN SMRT retention time set (Domingo-Almenara et al. 2019).

assay: gradient 5% acetonitrile 3 min, to 50% in 2 min, to 85% in 15 min, held 3 min, 100 µL/min; conditions: column: Zorbax Extend-C18 2.1 x 50 mm; eluents: water / acetonitrile, 0.1% formic acid
Procedure, shortened: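 In both positive and negative ionization mode, a quadrupole time-of-flight mass spectrometer coupled to HPLC analyzed pure standards run in mixtures of ~100 molecules. The Zorbax Extend-C18 column (2.1 × 50 mm, 1.8 μm) was operated at 100 μL/min with water and acetonitrile, each containing 0.1% formic acid. The dead volume was 40 μL and the dwell volume 900 μL. Retention time came from adduct peaks that were computationally picked and individually inspected by hand.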

RP-LC retention time	SMILES
807 s	CCCn1cc(CCNC(=O)Nc2ccc(C)c(F)c2)c2cccnc21
1120 s	Cc1cccc(C)c1-n1ccn(Cc2nc(-c3ccc(C(C)(C)C)cc3)no2)c(=O)c1=O
692 s	O=C(NCCc1nc(-c2ccc3c(c2)OCO3)n[nH]1)c1ccc(F)cc1Cl
798 s	O=C(OCc1ccccc1)c1nc2ccccc2nc1N1CCN(c2ccccn2)CC1
566 s	CC(=O)Nc1ccc(NC(=O)C2CCCN(C(=O)c3cc(-c4ccncc4)n[nH]3)C2)cc1 (stereo not given)
1000 s	COC(=O)c1c(-c2ccc(Cl)cc2)noc1N1CCN(c2ccccn2)CC1
628 s	O=C(Nc1ccc2c(c1)OCO2)N(Cc1ccccn1)Cc1ccco1
675 s	Nc1nc(SCCc2ccccc2)c2[nH]cnc2n1
936 s	Clc1ccc(C2Cn3nnc(-c4nc(-c5ccccn5)no4)c3CO2)cc1 (stereo not given)
797 s	CCOc1ccc(NC(=O)N2CCC(n3cnc4cc(F)ccc4c3=O)CC2)cc1
1140 s	Cc1cccc(Nc2c(-c3ccc(Br)cc3)nc3cnccn23)c1C
764 s	O=C(Cc1csc2nc(-c3ccccc3)cn12)Nc1ccccc1F
804 s	Cc1ccccc1C(=O)CC1(O)C(=O)Nc2ccc(Br)cc21 (stereo not given)
911 s	O=C(c1ccccc1F)N1CCC(c2nc(-c3ccccc3)no2)C1 (stereo not given)
1310 s	Cc1ccc(-c2nc(C3CCN(S(=O)(=O)c4ccc5c(c4)CCC5)CC3)no2)cc1
1100 s	C=CCN1C(=O)COc2ccc(-c3nc(NC(=O)c4ccc(C)cc4)sc3C)cc21
590 s	O=C(NCCCN1CCN(c2ccccc2)CC1)c1ccc(F)cc1F
915 s	CC(C)Oc1ccc(CNC(=O)c2nnc(-c3ccc(S(=O)(=O)N4CCOCC4)cc3)o2)cc1
901 s	Cc1oc(-c2ccc(NC(=O)c3ccc(Br)o3)cc2)nc1Cn1cccn1
980 s	CCOc1ccc2nc(NC(=O)Cc3csc4nc(-c5ccc(C)c(C)c5)cn34)sc2c1
818 s	CN1c2ccc(Cl)cc2C(=O)NC12CCN(C(=O)c1ccc(F)cc1)CC2
1300 s	Cc1ccc(C2Cn3nnc(-c4nc(-c5cccc(F)c5)no4)c3CO2)c(C)c1 (stereo not given)
625 s	Cc1ccc(-n2nc(C(=O)N3CCN(c4ccccn4)CC3)c(=O)n(C)c2=O)cc1
667 s	Cn1c(C(=O)NC2CCN(Cc3ccccc3)CC2)cc2c(=O)oc3ccccc3c21
910 s	O=C(CN1CCc2ccccc2C1C(=O)N1CCCCC1)NCc1ccc(Cl)cc1 (stereo not given)

RP-LC retention time	SMILES
646 s	CCN(CC)CCNC(=O)c1c(-c2ccccc2)c(-c2ccccc2)nn(C)c1=O
958 s	CCOc1ccccc1-n1ccn(Cc2nc(-c3ccc(C)c(C)c3)no2)c(=O)c1=O
1120 s	Cc1ccccc1-n1c(=O)c2sccc2n(Cc2nc(-c3ccc(Br)cc3)no2)c1=O
950 s	CCCn1cc(S(=O)(=O)NCc2cccc(Cl)c2)c2cccnc21
1090 s	CSc1ccc(CNC(=O)C2CCCN(c3ncc(-c4ccc(F)cc4)cn3)C2)cc1 (stereo not given)
781 s	Cc1ccc2nc(-c3ccccc3O)c(Nc3ccc(Cl)cc3)n2c1
917 s	Cc1ccnc(SCC(=O)Nc2nc(-c3ccccc3)cs2)n1
1060 s	Cc1ccc(C)c(-c2coc(-c3ccc(N)cc3)n2)c1
856 s	Cc1nc(N2CCN(c3ccccn3)CC2)nc2c1C(=O)CC(/C=C/c1ccccc1)C2 (stereo not given)
684 s	Cc1ccc(-c2nc3nc4c(c(N5CCN(c6ccccn6)CC5)n3n2)CCC4)cc1
1070 s	CC1Oc2ccc(-c3csc(NC(=O)COc4ccc(Cl)cc4)n3)cc2N(C)C1=O (stereo not given)
705 s	Cc1ccc(CNC(=O)C2CCCN(c3nnc4ccccn34)C2)cc1 (stereo not given)
872 s	COc1ccccc1-c1nc2nccc(-c3ccsc3)n2n1
816 s	COc1ccc(S(=O)(=O)N2CCC(c3noc(-c4ccncc4)n3)C2)cc1 (stereo not given)
823 s	Cc1ccc(N2CC(NC(=O)C(=O)c3c[nH]c4ccccc34)CC2=O)cc1 (stereo not given)
636 s	O=C(C1CC1)N1CCC(c2noc(-c3ccccn3)n2)C1 (stereo not given)
694 s	O=S(=O)(c1ccc2c(c1)CCC2)N1CCC(Cc2nc(-c3cccnc3)n[nH]2)C1 (stereo not given)
847 s	Fc1ccc(-c2nc3ncccn3c2Nc2ccc(Cl)cc2)cc1
1310 s	O=C(CSc1cc(N2CCN(c3ccccc3F)CC2)ncn1)Nc1ccc(Cl)cc1F
572 s	O=C(O)c1cc(-c2ccncc2)nc2ccccc12
666 s	O=C(CSc1ccc(N2CCCC(C(=O)NC3CC3)C2)nn1)NCCc1ccc(Cl)cc1 (stereo not given)
687 s	O=C(CSc1nc2ccccc2s1)NCCn1nc(-c2ccco2)ccc1=O
742 s	COCCCNC(=O)NCc1ccc2c(c1)N(C(=O)c1ccccc1)CC2
1010 s	COc1ccc(OCc2nc(-c3ccc(N4CCCCC4)nc3)no2)cc1

Second part, the compound before the results:

SMILES	RP-LC retention time
CN(C)[C@@H]1CN(C(=O)C2CCCC2)CC[C@@H]1CO	569 s
CN1C(=O)CCc2cc(NC(=O)c3ccsc3)ccc21	691 s
Cc1cc(C)c(S(=O)(=O)N2CCn3c(nn(CC4CC4)c3=O)C2)cc1C	873 s
Cc1cccc(N2CCN(C(=O)C3CCN(c4cncnc4N(C)C)CC3)CC2)c1C	756 s
CCCN(C)CC1(O)CCC2(CCN(C(=O)c3ccsc3)CC2)CC1	590 s
COc1ccc(OC)c(CNC(=O)CN2C(=O)CSc3cccn3-c3ccccc32)c1	914 s
CC12C(=O)N(Cc3ccccc3)C(=O)C1C1C=CC2C1 (stereo not given)	844 s
COCC1CN(C2CCC2)CC12CCN(C(=O)C(C)C)CC2 (stereo not given)	584 s
CCCNC(=O)C1CCCN(S(=O)(=O)c2cc(-c3noc(C4CCCC4)n3)cs2)C1 (stereo not given)	1050 s
Cc1cc(CN2CCC(CNC(=O)NCc3cccs3)CC2)c(C)o1	578 s
CCC1CCCCN1CCCNC(=O)CCCn1c(=O)c2cccn2c2ccccc21 (stereo not given)	641 s
Cc1sc(C)c(S(=O)(=O)N2CCCCC2)c1-c1cc(C(F)(F)F)on1	1210 s
CC(C)N1CCN(C(=O)C2CCc3sc(C(=O)N4CCCCCC4)cc3C2)CC1 (stereo not given)	619 s
CCOC(=O)C1=C(CN2CCN(C(C)CC)CC2)NC(=O)NC1c1ccc(F)cc1 (stereo not given)	623 s
CN1CCN(CCNC(=O)CC2CCN(C(=O)c3cc4cc(Cl)ccc4[nH]3)CC2)CC1	618 s
COc1ccc(NC(=O)Cn2cnc3nc4c(cc3c2=O)CCCC4)cc1	695 s
O=C(NC1CCCC1)C1CCN(c2nc3ccc(-c4cncnc4)nc3s2)CC1	776 s
CC1CCCN(CCCNC(=O)c2ccc3c(c2)NC(=O)C2CCCN32)C1 (stereo not given)	579 s
Cc1oc(C2CCN(C(=O)C3CCN(S(=O)(=O)N4CCC(C)CC4)CC3)CC2)nc1C(=O)N1CCCC1	861 s
Cc1nc2nc(-c3ccc(C(C)(C)C)cc3)nn2c(C)c1CC(=O)N1CCN(CCO)CC1	657 s
COc1cc(-c2nc(Cn3ccn4nc(-c5ccc(F)cc5)cc4c3=O)c(C)o2)cc(OC)c1OC	996 s

SMILES	RP-LC retention time
COc1ccc(CN(C)Cc2cc(=O)c3cc(C)ccc3[nH]2)cc1	603 s
C[C@@]1(c2cc(-c3cncnc3)c(F)cc2F)CCSC(N)=N1	654 s
CC1CCN(S(=O)(=O)c2ccc(-c3nnc(C(=O)NC4CCCC4)o3)cc2)CC1	1030 s
CS(=O)(=O)N1CCN(C(=O)CCCn2nc(-c3ccc(F)cc3)ccc2=O)CC1	652 s
CCn1ccc(C(=O)NC2CCN(c3nnc4ccc(Cl)cn34)CC2)n1	581 s
CC(C)Cn1c(=O)c2nscc2n(CC(=O)NC2CCCC2)c1=O	731 s
Cc1ccc(C)c(NC(=O)Cn2nc3n(c2=O)CCCC3)c1	708 s
COc1ccc(NC(=O)Cn2c(C)cc(-c3nnc(C4CCC4)o3)c2C)cc1F	697 s
COCCNC(=O)c1csc(N2CCN(c3ccccc3)CC2)n1	863 s
CCC(COC(=O)c1cc(OC)c(OC)c(OC)c1)(c1ccccc1)N(C)C (stereo not given)	752 s
CCOC(=O)CCNC(=O)N1CCCC(Cn2cnc3cccnc32)C1 (stereo not given)	604 s
O=S(=O)(c1ccc(-c2nnc(C3CC3)o2)o1)N1CCCCC1	853 s
CCC(=O)NCc1csc(C2CCN(C(=O)C3CCC3)CC2)n1	614 s
O=C(CN1C[C@H]2C[C@H](C1)[C@H]1CCCC(=O)N1C2)NCCC1=CCCCC1	627 s
Cn1nc2n(c1=O)CCN(C(=O)Cc1cccs1)CC2	610 s
O=C(NOCC1CC1)c1cc(Br)c(F)c(F)c1Nc1ccc(I)cc1Cl	1170 s
COc1ccc(NS(=O)(=O)c2ccc(N)cc2)nn1	572 s
CC(C)Oc1ccccc1CN1CC[C@@H]2CN(S(C)(=O)=O)[C@@H]2C1	638 s
CCOCCCNC(=O)c1cc2c(n(-c3ccc(C(F)(F)F)cc3)c1=O)CCCC2=O	853 s
CCCCNC(=O)c1cn(C)nc1S(=O)(=O)N1CCC(C)CC1	938 s
